System: P12-Ichikawa
Experiment: cell viability relative to DMSO control; higher = less cytotoxic
Details: 48 h
Method in brief: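 In 1536-well plates, 5 μl of leukemia cells were seeded per well: 500 cells/well for NOMO1 or SEM and 1000 cells/well for P12-Ichikawa. Each line had first been adapted for at least four passages in each medium. Library compounds in DMSO were pin-dosed at 11 threefold concentrations between 47 μM and 0.79 nM, and CellTiter-Glo One luminescence was read after 48 h at 37°C. Viability is a per-plate percentage relative to DMSO wells, with cell-free wells as background.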

[1] = HPLM + 10% dialyzed FBS, 0.000781 µM
[2] = HPLM + 10% dialyzed FBS, 0.00234 µM
[3] = HPLM + 10% dialyzed FBS, 0.00702 µM
[4] = HPLM + 10% dialyzed FBS, 0.0211 µM
[5] = HPLM + 10% dialyzed FBS, 0.0632 µM
[6] = HPLM + 10% dialyzed FBS, 0.19 µM
[7] = HPLM + 10% dialyzed FBS, 0.569 µM
[8] = HPLM + 10% dialyzed FBS, 1.71 µM
[9] = HPLM + 10% dialyzed FBS, 5.12 µM
[10] = HPLM + 10% dialyzed FBS, 15.4 µM
[11] = HPLM + 10% dialyzed FBS, 46.1 µM
[12] = RPMI 5 mM glucose + 10% FBS, 0.000781 µM
[13] = RPMI 5 mM glucose + 10% FBS, 0.00234 µM
[14] = RPMI 5 mM glucose + 10% FBS, 0.00702 µM
[15] = RPMI 5 mM glucose + 10% FBS, 0.0211 µM
[16] = RPMI 5 mM glucose + 10% FBS, 0.0632 µM
[17] = RPMI 5 mM glucose + 10% FBS, 0.19 µM
[18] = RPMI 5 mM glucose + 10% FBS, 0.569 µM
[19] = RPMI 5 mM glucose + 10% FBS, 1.71 µM
[20] = RPMI 5 mM glucose + 10% FBS, 5.12 µM
[21] = RPMI 5 mM glucose + 10% FBS, 15.4 µM
[22] = RPMI 5 mM glucose + 10% FBS, 46.1 µM
[23] = RPMI 5 mM glucose + 10% dialyzed FBS, 0.000781 µM
[24] = RPMI 5 mM glucose + 10% dialyzed FBS, 0.00234 µM
[25] = RPMI 5 mM glucose + 10% dialyzed FBS, 0.00702 µM
[26] = RPMI 5 mM glucose + 10% dialyzed FBS, 0.0211 µM
[27] = RPMI 5 mM glucose + 10% dialyzed FBS, 0.0632 µM
[28] = RPMI 5 mM glucose + 10% dialyzed FBS, 0.19 µM
[29] = RPMI 5 mM glucose + 10% dialyzed FBS, 0.569 µM
[30] = RPMI 5 mM glucose + 10% dialyzed FBS, 1.71 µM
[31] = RPMI 5 mM glucose + 10% dialyzed FBS, 5.12 µM
[32] = RPMI 5 mM glucose + 10% dialyzed FBS, 15.4 µM
[33] = RPMI 5 mM glucose + 10% dialyzed FBS, 46.1 µM

SMILES	cell viability [1] [%]	cell viability [2] [%]	cell viability [3] [%]	cell viability [4] [%]	cell viability [5] [%]	cell viability [6] [%]	cell viability [7] [%]	cell viability [8] [%]	cell viability [9] [%]	cell viability [10] [%]	cell viability [11] [%]	cell viability [12] [%]	cell viability [13] [%]	cell viability [14] [%]	cell viability [15] [%]	cell viability [16] [%]	cell viability [17] [%]	cell viability [18] [%]	cell viability [19] [%]	cell viability [20] [%]	cell viability [21] [%]	cell viability [22] [%]	cell viability [23] [%]	cell viability [24] [%]	cell viability [25] [%]	cell viability [26] [%]	cell viability [27] [%]	cell viability [28] [%]	cell viability [29] [%]	cell viability [30] [%]	cell viability [31] [%]	cell viability [32] [%]	cell viability [33] [%]
Cc1ccccc1N1C(=O)c2cc([S+](N)(=O)[O-])c(Cl)cc2NC1C (stereo not given)	134	121	119	132	125	125	109	120	119	103	110	122	121	131	129	137	134	130	124	109	98.3	129	–	–	–	–	–	–	–	–	–	–	–
COc1cccc2cc(-c3nc(C4CCC(C(=O)O)CC4)n4ncnc(N)c34)[nH]c12 (stereo not given)	111	117	120	112	91.3	98.6	21	14.3	13.8	14.2	24.5	109	116	114	99.9	89	91.4	67.8	18.7	13.8	13.4	12.6	115	123	112	119	89.6	93.3	70.2	26.5	23.2	20.1	22.3
CC1=C(/C=C/C(C)=C/C=C/C(C)=C/C=C/C=C(C)/C=C/C=C(C)/C=C/C2=C(C)CCCC2(C)C)C(C)(C)CCC1	112	112	109	110	109	106	108	107	112	95.1	99.3	111	119	110	111	116	105	111	109	108	95.8	95.4	117	113	118	108	109	106	107	106	106	103	85.7
CC(=O)Oc1ccccc1C(=O)O	99.8	96.4	102	93.9	101	101	96.6	95.5	90.3	96.4	101	106	101	104	98.6	101	86.5	87.3	105	95.9	96.4	99.3	97.2	97.5	98.7	105	101	93.6	89.2	99.6	93.2	104	103
CC(NC1=CC=CC=C1)C\2=C\C(=C/N3C(=O)\C=C(/N=C23)N4CCOCC4)C (stereo not given)	101	100	107	110	109	110	115	115	110	106	101	95.9	98	97.4	98.1	102	110	115	113	101	112	102	88.6	93.6	114	110	99.1	115	110	116	105	106	111
COc1cc2nc(N(C)CCCNC(=O)C3CCCO3)nc(N)c2cc1OC (stereo not given)	78.4	88.7	80.9	92.3	88.8	87.6	86.2	82.3	88.3	92.6	94.1	82.3	87.4	89.9	91	92.6	91.3	84.6	87.8	91.6	93.9	101	70.4	81.7	76.8	78.9	82.9	83.4	79.5	82.7	76.6	87.8	80.7
CCC1(C)CC(=O)NC1=O (stereo not given)	101	103	104	104	108	116	100	102	94.9	96.7	94.7	99.4	105	115	101	111	105	102	99.3	106	92	87.4	101	101	101	97.3	104	104	102	96.3	96.3	97.1	88.9
COC[C@H]1OC(=O)C2=COC3=C2[C@@]1(C)\C4=C(C5CCC(=O)[C@@]5(C)C[C@H]4OC(C)=O)/C3=O (stereo not given in full)	93.1	98.8	104	11.9	108	113	107	107	110	99.1	101	83.8	99.7	98.7	12.2	98.1	93.6	97.3	101	94.3	97	82	85.8	90	97.6	32.6	99.8	101	95.1	96.4	102	93.7	77
O=C(OC)[C@]12CC[C@@]3(C)[C@]4(C)CC[C@H]5[C@@](C)(C)C(=O)C(=C[C@]5(C)C4=CC(=O)[C@@H]3[C@@H]2C[C@](C)(C)CC1)C#N	100	100	96.3	102	104	105	99.8	97.5	99.2	2.24	2.66	92.7	96.7	97.1	90.3	109	100	107	102	97	2.4	2.78	95.8	93.3	92.3	98.3	101	108	105	90.3	90.7	2.44	2.54
CN(C)c1ccc(O)c2c1C[C@H]1C[C@H]3[C@H](N(C)C)C(O)=C(C(N)=O)C(=O)[C@@]3(O)C(O)=C1C2=O	109	106	105	97.4	107	110	103	99.9	104	91.2	106	113	110	101	100	112	103	101	95.2	88.5	94.9	93.9	110	116	112	118	118	95.6	86.2	81.7	82.5	92.6	98.8
CNC1CCC(N(Cc2cccc(-c3ccncc3)c2)C(=O)c2sc3ccccc3c2Cl)CC1 (stereo not given)	96.9	102	107	99.9	97.3	99.7	107	13.8	4.58	1.97	0.291	89.2	92.9	91.4	96.6	94.5	94.8	102	61.3	4.21	3.93	1.13	79.1	86.1	86.9	95.8	86.2	94.4	97.1	44.7	4.4	3.5	0.803
CN(CC#C)C/C1=C/C2=CC=CC=C2OC3=CC=CC=C13	91	85	92	87.6	90.8	89.6	90.1	80.8	84.1	83	87.1	91.8	86.1	88.2	91.2	92.6	84.7	76.5	83.3	78.4	83.1	82	83.3	81	89.8	87.8	88	87.9	88.4	76.5	77.2	82	78.4
FC(F)(F)c1ccc(/C=C/c2nc(COc3ccc(CCCCn4ccnn4)cc3)co2)cc1	119	124	110	97.3	88	86.9	83.4	85.6	40.4	35.6	81.6	–	–	–	–	–	–	–	–	–	–	–	–	–	–	–	–	–	–	–	–	–	–
CC(C)C(C)/C=C/C(C)C1CCC2C3=CC=C4CC(O)CCC4(C)C3CCC21C (stereo not given)	110	105	97.8	109	99.5	96.6	111	94.4	106	97.8	97.3	99.1	99.4	98.3	106	96.7	98.4	102	97.6	93.5	94.5	92.2	91.1	94.8	102	97.1	103	96.7	97.5	96.8	92.8	91	89.4
Cc1cn2c(-c3cn[nH]c3)cnc2c(Nc2ccc(C(=O)N3CCNCC3)cc2F)n1	98.2	104	100	99.8	101	103	104	97.7	91.9	73.4	43.5	105	98.3	95.7	91.8	103	96.8	95.1	96.9	90.4	74.6	49.2	104	105	102	99.5	105	107	109	95.6	94.4	65.3	42.5
O=C(NCC[S+](=O)([O-])c1ccc(C(F)(F)F)cn1)c1ccc(Cl)cc1	115	116	121	115	118	117	115	117	110	112	108	117	124	118	127	117	115	111	107	119	107	109	112	126	121	121	120	116	115	103	115	102	102

— the supplement of paper PMC11451515
